Assays:
Experiment in all cases: Test B pre-/postemergence plant response
Type in all cases: in vivo
[1] = tested on: Surinam grass (Brachiaria decumbens); conditions: for Plant response rating, Surinam Grass: Postemergence, scale 0 to 100 (0 no effect, 100 complete control)
Method in brief: (§1)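 Greenhouse herbicide screen. Pre- and postemergence (1- to 4-leaf) spray of compound in solvent/surfactant mixture; loam–sand soil for pre, peat/vermiculite medium for post. Visual control rating 0–100 at 13 to 15 days after treatment.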

[2] = tested on: blackgrass (Alopecurus myosuroides)
Method in brief: as §1

[3] = tested on: corn (Zea mays)
Method in brief: as §1

[4] = tested on: downy bromegrass (Bromus tectorum)
Method in brief: as §1

[5] = tested on: goosegrass (Eleusine indica)
Method in brief: as §1

[6] = tested on: green foxtail (Setaria viridis)
Method in brief: as §1

[7] = tested on: johnsongrass (Sorghum halepense)
Method in brief: as §1

[8] = tested on: kochia (Kochia scoparia)
Method in brief: as §1

[9] = tested on: lambsquarters (Chenopodium album)
Method in brief: as §1

[10] = tested on: large crabgrass (Digitaria sanguinalis)
Method in brief: as §1

[11] = tested on: morningglory (Ipomoea coccinea)
Method in brief: as §1

[12] = tested on: pigweed (Amaranthus retroflexus)
Method in brief: as §1

[13] = tested on: soybean (Glycine max); conditions: for Plant response rating, Soybean: Postemergence, scale 0 to 100 (0 no effect, 100 complete control)
Method in brief: as §1

[14] = tested on: velvetleaf (Abutilon theophrasti); conditions: for Plant response rating, Velvetleaf: Postemergence, scale 0 to 100 (0 no effect, 100 complete control)
Method in brief: as §1

[15] = tested on: wild oat (Avena fatua)
Method in brief: as §1

[16] = tested on: woolly cupgrass (Eriochloa villosa)
Method in brief: as §1

[17] = tested on: yellow nutsedge (Cyperus esculentus)
Method in brief: as §1

[18] = 62 g ai/ha, postemergence, 0 is no effect, 100 is complete control, 13 to 15 days
[19] = 31 g ai/ha, postemergence, scale 0 to 100, 0 is no effect, 100 is complete control
[20] = Postemergence, 125 g ai/ha, scale 0 to 100 (0 no effect, 100 complete control)
[21] = Postemergence, 250 g ai/ha, scale 0 to 100 (0 no effect, 100 complete control)

In the case of `O=C1CCCC(O)=C1C(=O)c1cnc(-c2ccsc2)n(C2CCCCC2)c1=O` [Compound 99], the “Surinam Grass plant response rating (0 to 100 scale)” value [1, 18] was 70, the “Plant response rating, Surinam Grass” value ([1]; 125 g ai/ha) was 75 and the “Plant response rating, Surinam Grass” value ([1]; 250 g ai/ha) was 80. The “Plant response rating, Blackgrass” value [2, 19] was 0, the “Blackgrass plant response rating (0 to 100 scale)” value [2, 18] was 0 and the “Plant response rating, Blackgrass” value [2, 20] was 5. The “Plant response rating, Blackgrass” value [2, 21] was 15, the “Plant response rating, Corn” value [3, 19] was 40 and the “Corn plant response rating (0 to 100 scale)” value [3, 18] was 65. The “Plant response rating, Corn” value [3, 20] was 65, the “Plant response rating, Corn” value [3, 21] was 80 and the “Plant response rating, Bromegrass, Downy” value [4, 19] was 5. For the same molecule, the “Bromegrass, Downy plant response rating (0 to 100 scale)” value [4, 18] was 5, the “Plant response rating, Bromegrass, Downy” value [4, 20] was 25 and the “Plant response rating, Bromegrass, Downy” value [4, 21] was 25. For the same molecule, the “Plant response rating, Goosegrass” value [5, 19] was 75, the “Goosegrass plant response rating (0 to 100 scale)” value [5, 18] was 75 and the “Plant response rating, Goosegrass” value [5, 20] was 75. The “Plant response rating, Goosegrass” value [5, 21] was 80, the “Plant response rating, Foxtail, Green” value [6, 19] was 50 and the “Foxtail, Green plant response rating (0 to 100 scale)” value [6, 18] was 90. The “Plant response rating, Foxtail, Green” value [6, 20] was 95, the “Plant response rating, Foxtail, Green” value [6, 21] was 98 and the “Plant response rating, Johnsongrass” value [7, 19] was 70. For the same molecule, the “Johnsongrass plant response rating (0 to 100 scale)” value [7, 18] was 75, the “Plant response rating, Johnsongrass” value [7, 20] was 80 and the “Plant response rating, Johnsongrass” value [7, 21] was 95. For the same molecule, the “Plant response rating, Kochia” value [8, 19] was 80, the “Kochia plant response rating (0 to 100 scale)” value [8, 18] was 80 and the “Plant response rating, Kochia” value [8, 20] was 100. The “Plant response rating, Kochia” value [8, 21] was 100, the “Plant response rating, Lambsquarters” value [9, 19] was 98 and the “Lambsquarters plant response rating (0 to 100 scale)” value [9, 18] was 100. For the same molecule, the “Plant response rating, Lambsquarters” value [9, 20] was 100, the “Plant response rating, Lambsquarters” value [9, 21] was 100 and the “Plant response rating, Crabgrass, Large” value [10, 19] was 85. The “Crabgrass, Large plant response rating (0 to 100 scale)” value [10, 18] was 85, the “Plant response rating, Crabgrass, Large” value [10, 20] was 95 and the “Plant response rating, Crabgrass, Large” value [10, 21] was 95. For the same molecule, the “Plant response rating, Morningglory” value [11, 19] was 100, the “Morningglory plant response rating (0 to 100 scale)” value [11, 18] was 100 and the “Plant response rating, Morningglory” value [11, 20] was 100. The “Plant response rating, Morningglory” value [11, 21] was 100, the “Plant response rating, Pigweed” value [12, 19] was 100 and the “Pigweed plant response rating (0 to 100 scale)” value [12, 18] was 100. For the same molecule, the “Plant response rating, Pigweed” value [12, 20] was 100, the “Plant response rating, Pigweed” value [12, 21] was 100 and the “Soybean plant response rating (0 to 100 scale)” value [13, 18] was 100. For the same molecule, the “Plant response rating, Soybean” value ([13]; 125 g ai/ha) was 100, the “Plant response rating, Soybean” value ([13]; 250 g ai/ha) was 100 and the “Velvetleaf plant response rating (0 to 100 scale)” value [14, 18] was 100. For the same molecule, the “Plant response rating, Velvetleaf” value ([14]; 125 g ai/ha) was 100, the “Plant response rating, Velvetleaf” value ([14]; 250 g ai/ha) was 100 and the “Plant response rating, Oat, Wild” value [15, 19] was 10. For the same molecule, the “Oat, Wild plant response rating (0 to 100 scale)” value [15, 18] was 20, the “Plant response rating, Oat, Wild” value [15, 20] was 40 and the “Plant response rating, Oat, Wild” value [15, 21] was 80. The “Plant response rating, Cupgrass, Woolly” value [16, 19] was 70, the “Cupgrass, Woolly plant response rating (0 to 100 scale)” value [16, 18] was 75 and the “Plant response rating, Cupgrass, Woolly” value [16, 20] was 80. The “Plant response rating, Cupgrass, Woolly” value [16, 21] was 85, the “Plant response rating, Nutsedge, Yellow” value [17, 19] was 45 and the “Nutsedge, Yellow plant response rating (0 to 100 scale)” value [17, 18] was 70. The “Plant response rating, Nutsedge, Yellow” value [17, 20] was 70 and the “Plant response rating, Nutsedge, Yellow” value [17, 21] was 75.
